Values joined by “and” are separate entries in the source; they are usually repeats but may differ in a detail not shown here. Equal entries are not always repeated.
What was measured:
[1] = tested on: Prostaglandin E2 (PGE2) production; test: Assay for Prostaglandin E2 (PGE2) inhibition in LPS-induced peripheral blood mononuclear cells (PBMC); assay type: cell-based; conditions: LPS 10 ng/mL induction; for % Inhibition of PGE2: human PBMC
Protocol: Human blood was collected from healthy volunteers from a peripheral vein with a syringe containing EDTA at a final concentration of 2 mM. Plasma was separated by centrifugation at 1000 rpm for 10 minutes, and the residual blood was diluted with RPMI medium supplemented with 10% FBS and 2 mM EDTA in a ratio of 1:3. Thirty milliliters of blood was carefully layered onto the 15 mL of Ficoll/Lymphoprep in a 50 mL falcon tube, and tubes were centrifuged at 350×g for 30 minutes at an acceleration of 9 without using the brake. Buffy coat (interface between medium and Ficoll) containing peripheral blood mononuclear cells (PBMC) was collected carefully in 25 mL of cold 1× phosphate-buffered saline (PBS) and centrifuged at 1200 rpm for 10 minutes. Residual RBCs found in PBMCs pellet were removed by treating with ACK lysis buffer (Gibco Cat #A10492-01) and washed with fresh 1×PBS. PBMC were seeded in a 96-well plate with a density of 0.1×10^6 cells/well and treated with different concentrations of test samples. Cells with 0.2% DMSO served as vehicle control. The plate was incubated in a CO2 incubator at 37° C. for 2 hrs. Finally, cells were induced with LPS (10 ng/mL final concentration) for 4 hours except for vehicle control by keeping the plate at 37° C. in a CO2 incubator. The plate was centrifuged at 1200 rpm for 5 minutes, and 120 μL cell-free supernatants were collected. Quantitation of PGE2 was performed using an ELISA kit (Cayman Chemicals Cat #514010) according to the manufacturer's instructions. Absorbance was measured at 412 nm in a kinetic mode for 30 minutes in a microplate reader (Spectramax2e, Molecular Devices, USA). Percent Inhibition of PGE2 was calculated using the following formula. % Inhibition of PGE2=(Normalized conc. of PGE2 in Induction)−(Normalized conc. of PGE2 in Test sample)/×100 • (Normalized conc. of PGE2 in Induction)
The normalized PGE2 concentration in the LPS induced or the treated wells were obtained from deducting the […].

[2] = tested on: C-reactive protein (CRP); test: Reduction of C-Reactive Protein (CRP) in muscle, exercise-induced DOMS model of rats; assay type: in vivo, Sprague Dawley rats; conditions: 25 mg/kg for seven days; for Mean CRP conc.: EDL muscle tissue lysate; for % reduction of CRP from normal control: EDL muscle
Protocol: On day 1 of the study, male Sprague Dawley rats (8-12 weeks) were randomized into seven groups, each group contained seven animals. Basal readings (Paw Withdrawal Threshold) of mechanical hyperalgesia (Electronic von Frey) were obtained. Animals were dosed with either 25 mg/kg of the test items or vehicle (0.5% CMC-Na) for seven days. On day 5, Delayed Onset of Muscle Soreness (DOMS) was induced by introducing the animals to downhill treadmill running task (rate, 15 m/min; time, 5 min; incline, −20° followed by a 1-min rest, repeated 18 times) for 90 min or till exhaustion. Paw Withdrawal Threshold (PWT) was measured at 1 h, 4 h, 24 h (day 6) and 48 h (day 7) post to eccentric exercise and the exploratory behavior measurements were taken at 1 h and 4 h post to DOMS induction. Terminal necropsy was performed after euthanizing the animals under CO2 asphyxiation.
Small pieces of the extensor digitorum longus (EDL) muscles were macerated in liquid nitrogen (LN2) and homogenized in a tissue lysis buffer [50 mM Tris-HCl (pH 7.4), 150 mM NaCl, 5 mM EDTA, 0.5% sodium dodecyl sulfate (SDS), 1% deoxycholate, 0.1% Triton X-100, 1% Nonidet P-40 (NP-40), 0.05% mercaptoethanol, 10 mg/ml PMSF, 0.5 mg/ml leupeptin, 0.2 mg/ml aprotinin, and 1 mM Na3VO4]. The homogenate was centrifuged at 18928 g for 25 min at 4° C., and the supernatant was collected. Protein concentrations of the tissue lysates were determined using BCA protein assay kit (Thermo Fisher, Rockford, IL). C-reactive protein (CRP) concentrations in the muscle tissue lysates were determined using a commercial kit (Rat CRP/C-Reactive Protein ELISA Kit, Sigma, Cat #RAB0097) following the manufacturer's instructions, where the samples were diluted with assay buffer (1:10000) and performed the assay. The amount of CRP present in the tissue lysates was calculated and expressed as nanogram (ng) per milligram of protein. The reduction of CRP concentration in the muscle samples in the treated groups was calculated using the following formula.

[3] = pH of 1% solution; assay type: physicochemical
Protocol: (§1) These potassium or sodium salts of AKBA were evaluated for their solubility in water and determined their pH.

[4] = Solubility in water of potassium or sodium salts of AKBA; assay type: physicochemical; conditions: volume of water needed to completely dissolve 1.0 g; room temperature (RT)
Protocol: as §1

[5] = tested on: Leukotriene B4 (LTB4) production; test: Assay for Leukotriene B4 (LTB4) inhibition in A23187-induced polymorphonuclear leukocytes (PMNs); assay type: cell-based; conditions: human PMNs, 10 μM A23187 induction
Protocol: Human blood was collected from healthy volunteers from a peripheral vein in the presence of 2 mM EDTA. Plasma was separated by centrifugation at 1000 rpm for 10 minutes, and the residual cell pellet was resuspended in RPMI medium supplemented with 10% FBS and 2 mM EDTA. Thirty milliliters of blood cell suspension was carefully overlayed onto 15 mL of Ficoll/Lymphoprep in a 50 mL falcon tube in the dark, and the tube was centrifuged at 350×g for 30 minutes without using the brake. After removing the peripheral blood mononuclear cells (PBMC) and Ficoll/Lymphoprep, the settled red blood cell (RBC) layer containing granulocytes was treated with ACK lysis buffer (Gibco Cat #A10492-01) to lyse the RBC. After centrifugation at 1200 rpm for 10 minutes, the resulting cell pellet of polymorphonuclear leukocytes (PMNs) was resuspended in RPMI containing 1% newborn calf serum (NBCS). These cells were seeded in a 96-well plate at a density of 50,000 cells/well and treated with different concentrations of the test samples. Cells with 0.2% DMSO served as vehicle control. The plate was incubated in a CO2 incubator at 37° C. for 2 hrs. Finally, the cells treated with test samples were induced with 10 μM A23187 for 10 minutes at 37° C. in a CO2 incubator. The cells treated with only A23187 served as induction control. The plate was centrifuged at 1200 rpm for 5 minutes, and 120 μL cell-free supernatants were collected. Quantitation of LTB4 was performed using an ELISA kit (R&D Systems, Cat #SKGE006B) following the manufacturer's instructions. Absorbance was measured at 450 nm with a correction wavelength of 570 nm in a plate reader (Spectramax2e, Molecular Devices, USA). The reduction of LTB4 production was calculated using the following formula. % reduction of LTB4=[(Normalized Conc. of LTB4 in Induction)−(Normalized Conc. of LTB4 in Test sample)]/(Normalized Conc. of LTB4 in Induction)×100 The results are presented in tables: 3-5.

With `CC(=O)O[C@@H]1CC[C@@]2(C)[C@@H](CC[C@]3(C)[C@@H]2C(=O)C=C2[C@@H]4[C@@H](C)[C@H](C)CC[C@]4(C)CC[C@]23C)[C@@]1(C)C(=O)O` [LN03, 3-O-acetyl-11-keto-β-boswellic acid] the “% Inhibition of PGE2” value ([1]; 1.0 μg/mL) was 15.02%, the “% Inhibition of PGE2” value ([1]; 2.5 μg/mL) was 26.28% and the “Mean CRP conc.” value [2] was 65.44 ng/mg of protein. The “% reduction of CRP from normal control” value [2] was 40.60%, the “pH (1% solution)” value [3] was 6.63 and the “Solubility of 1.0 g of product in water” value [4] was greater than 1000 mL. The “% reduction of LTB4” value ([5]; 1.0 μg/mL) was 16.72% and the “% reduction of LTB4” value ([5]; 2.5 μg/mL) was 26.83%.
In the case of `CC(=O)O[C@@H]1CC[C@@]2(C)[C@@H](CC[C@]3(C)[C@@H]2C(=O)C=C2[C@@H]4[C@@H](C)[C@H](C)CC[C@]4(C)CC[C@]23C)[C@@]1(C)C(=O)O` [LN04, 3-O-acetyl-11-keto-β-boswellic acid], the inhibition at 1 µg/mL ([1]; Homo sapiens, PBMC, 1.0 μg/mL) is reported as 17.2%, the inhibition at 2.5 µg/mL ([1]; Homo sapiens, PBMC, 2.5 μg/mL) is reported as 20% and the “pH (1% solution)” value [3] is reported as 6.64. The “Solubility of 1.0 g of product in water” value [4] was greater than 1000 mL, the “% reduction of LTB4” value ([5]; 1.0 μg/mL) was 16.03% and the “% reduction of LTB4” value ([5]; 2.5 μg/mL) was 28.71%.
For `[Cl-].[K+]` [LN11, potassium chloride], the “Mean CRP conc.” value [2] was 78.21 ng/mg of protein and the “% reduction of CRP from normal control” value [2] was 10.23%.
In the case of `[Cl-].[Na+]` [LN12, sodium chloride], the “Mean CRP conc.” value [2] is reported as 78.04 ng/mg of protein and the “% reduction of CRP from normal control” value [2] is reported as 10.64%.
With “potassium salt or complex or chelate of 3-O-acetyl-11-keto-β-boswellic acid [LN05]” the “% Inhibition of PGE2” value ([1]; 1.0 μg/mL) was 24.42%, the “% Inhibition of PGE2” value ([1]; 2.5 μg/mL) was 42.29% and the “pH (1% solution)” value [3] was 9.24. The “% reduction of LTB4” value ([5]; 1.0 μg/mL) was 21.95% and the “% reduction of LTB4” value ([5]; 2.5 μg/mL) was 57.57%.
For “potassium salt or complex or chelate of 3-O-acetyl-11-keto-β-boswellic acid [LN07]”, the “% Inhibition of PGE2” value ([1]; 1.0 μg/mL) was 26.50%, the “% Inhibition of PGE2” value ([1]; 2.5 μg/mL) was 49.08% and the “Mean CRP conc.” value [2] was 56.97 ng/mg of protein. The “% reduction of CRP from normal control” value [2] was 60.75%, the “pH (1% solution)” value [3] was 9.21 and the “Solubility of 1.0 g of product in water” value [4] was 60 mL. The “% reduction of LTB4” value ([5]; 1.0 μg/mL) was 20.26% and the “% reduction of LTB4” value ([5]; 2.5 μg/mL) was 55.85%.
With “sodium salt of 3-O-acetyl-11-keto-β-boswellic acid [LN06]” the “% Inhibition of PGE2” value ([1]; 1.0 μg/mL) was 25.64%, the “% Inhibition of PGE2” value ([1]; 2.5 μg/mL) was 41.23% and the “pH (1% solution)” value [3] was 9.27. For the same compound, the “Solubility of 1.0 g of product in water” value [4] was 80 mL, the “% reduction of LTB4” value ([5]; 1.0 μg/mL) was 20.16% and the “% reduction of LTB4” value ([5]; 2.5 μg/mL) was 47.97% and 47.87%.
With “sodium salt of 3-O-acetyl-11-keto-β-boswellic acid [LN08]” the “% Inhibition of PGE2” value ([1]; 1.0 μg/mL) was 25.61%, the “% Inhibition of PGE2” value ([1]; 2.5 μg/mL) was 47.56% and the “Mean CRP conc.” value [2] was 58.99 ng/mg of protein. The “% reduction of CRP from normal control” value [2] was 55.94%, the “pH (1% solution)” value [3] was 8.74 and the “% reduction of LTB4” value ([5]; 1.0 μg/mL) was 21.66%. For the same compound, the “% reduction of LTB4” value ([5]; 2.5 μg/mL) was 46.10%.

Reference: patent US12576060B2, “Water soluble 3-O-acetyl-11-keto-β-boswellic acid and metal ion compositions, process for their preparation and uses thereof” (LAILA NUTRA PRIVATE LIMITED, priority 2020, dated 2026)
